Read-outs that look alike come from different tables or passages of the source.
Experiments:
[1] = tested on: focal adhesion kinase (FAK); details: HMEC-1 microvascular endothelial cells; various doses, 0.1 mM for kinetics
Experimental: Human microvascular endothelial cells (HMEC-1) were treated with H2O2 for indicated dose and duration. Phosphorylation of FAK was detected using Western blot and phosphorylation site-specific antibodies against FAK. Native FAK or β-actin was blotted to show equal loading. A. Effect of various dose of H2O2 treatment on phosphorylation (Ty 925) state of FAK. B. Kinetics of site-specific activation phophorylation of FAK in HMEC cells following H2O2 (0.1 mM) treatment.
Human microvascular endothelial cells (HMEC-1) were treated with H2O2 for indicated dose and duration. Phosphorylation of FAK was detected using Western blot and phosphorylation site-specific antibodies against FAK. Native FAK or β-actin was blotted to show equal loading.

keratin 14 = details: p47phox knockout mice; 1.25 micromoles/wound, days 0-4; day 18 post-wounding, after closure
Experimental: Two excisional wounds (FIG. 2) were-laced on the dorsal skin of 8 wk old C57BL/6, MCP-1 or p47phox KO mice. Each of the two wounds was treated with either saline or H2O2 (1.25 micromoles/wound; days 0-4). […] C. […] D. Keratin 14 (green fluorescence) expression in skin of p47phox KO mice harvested from wound sites after closure on day 18 post-wounding.
Briefly, two excisional wounds were placed on the dorsal skin of eight-week-old C57BL/6, MCP-1 or p47^phox knockout mice. Each of the two wounds was treated with either saline or H2O2 (1.25 micromoles/wound; days 0-4).

wound blood flow = details: 1.25 micromole/wound, days 0-4, once daily; post-heal tissue; vs placebo saline
Experimental: (§1) FIG. 4. […] Paired excisional wounds (FIG. 2) were either treated with placebo saline or H2O2 (1.25 micromole/wound, days0-4, once daily). Wound-edge tissue was collected at indicated times after wounding. A. Ribonuclease protection assay (RPA) showing kinetics of angiogenesis-related mRNA expression in a placebo-treated wound. […] C. Blood flow imaging of wounds was performed non-invasively using a Laser Doppler blood flow imaging device. Images reflecting the blood flow (right panel) and a digital photo (region of interest; left panel) from post-heal tissue are shown. Data i.e., mean±SD of the blood flow is presented (bar graph). The mean represents the arithmetic mean of all valid blood flow values for pixels within the region of interest.
(§2) Paired excisional wounds were either treated with placebo saline or H2O2 (1.25 micromole/wound, days 0-4, once daily). Wound-edge tissue was collected at indicated times after wounding.
Images reflecting the blood flow (right panel) and a digital photo (region of interest; left panel) from post-heal tissue are shown. […] The mean represents the arithmetic mean of all valid blood flow values for pixels within the region of interest.

[2] = tested on: focal adhesion kinase (FAK); details: wound-edge tissue, 1.25 micromole/wound, 30 minutes after wounding
Experimental: Human microvascular endothelial cells (HMEC-1) were treated with H2O2 for indicated dose and duration. Phosphorylation of FAK was detected using Western blot and phosphorylation site-specific antibodies against FAK. Native FAK or β-actin was blotted to show equal loading. […] B. Kinetics of site-specific activation phophorylation of FAK in HMEC cells following H2O2 (0.1 mM) treatment. […] Paired excisional wounds (FIG. 2) were either treated with placebo saline or H2O2 (1.25 micromole/wound). Wound-edge tissue was collected 30 min after wounding. FAK phosphorylation in wound edge tissue was determined using Western blot. Data from three animals (#1-#3) are shown.
In FIG. 5C, paired excisional wounds were either treated with placebo saline or H2O2 (1.25 micromole/wound). Wound-edge tissue was collected 30 minutes after wounding. FAK phosphorylation in wound edge tissue was determined using Western blot. Data from three animals (#1-#3) are shown.

CD31 = details: 1.25 micromole/wound, days 0-4; day 8 post-wounding; vs control
Experimental: as §1, §2

VEGF mRNA = details: 1.25 micromole/wound, once daily, days 0-4; wound-edge tissue
Experimental: as §1, §2

Flt-1 mRNA = details: 1.25 micromole/wound, once daily, days 0-4; wound-edge tissue
Experimental: as §1, §2

[3] = tested on: 8×16-mm full-thickness excisional wounds; details: for wound closure: p<0.05
Experimental: FIG. 3. […] Two 8×16 mm full-thickness excisional wounds (inset) were placed on the dorsal skin of C57BL/6 male mice (8 wk old). […] For determination of surface microflora, wounds (treated with either 1.25 micromole H2O2/wound, open bar, or saline, closed bar) were swabbed (24-48 h post wounding) for 20 sec with an alginate-tipped applicator. Quantitative assessment of surface bacterial load was performed. For deep tissue wound microflora, 48 h after wounding eschar tissue was removed, wound bed tissue underneath eschar was sampled and quantitative assessment of bacterial load was performed. Values shown represent mean±SD of CFU of four observations. C.
Briefly, two 8×16-mm full-thickness excisional wounds (FIG. 3, insets) were placed on the dorsal skin of C57BL/6 male mice (8 weeks old). Each of the two wounds was topically treated either with H2O2 or saline.

With `OO` [H2O2, hydrogen peroxide] the “phosphorylation of FAK” value [1] was “Induced Phosphorylation”, the “keratin 14 expression” value (keratin 14) was “comparable to normal skin” and the blood flow (wound blood flow) was “increased blood flow”. For the same compound, the “phosphorylation of FAK” value [2] was “Induced Phosphorylation”, the “vascularization (CD31 stain)” value (CD31) was “better vascularization” and the “wound-induced VEGF mRNA expression” value (VEGF mRNA) was “further augmented”. For the same compound, the “wound-induced Flt-1 mRNA expression” value (Flt-1 mRNA) was “further augmented”, the “tissue damage / survival” value ([3]; 62.5 micromoles/wound (0.025 ml of 7.5% solution), once on day 0) was “caused necrotic tissue damage and severe injury, leading to death of the mice” and the wound closure ([3]; high dose 25 micromoles/wound (0.025 ml of 3% solution), once daily days 0-4, compared to low dose 1.25 micromoles/wound) was “adversely affected closure”. The wound closure ([3]; low-dose 1.25 micromoles/wound (0.025 ml of 0.15% solution), topical, once daily, days 0-4, vs placebo saline side) was “facilitated closure moderately”.
